According to US8431567B2 (Abbott GmbH & Co. KG, priority 2006, dated 2013):
Counter-ions that a name gives are not always drawn.

Biological target: T1, human vasopressin V1b receptor (Homo sapiens, UniProt P47901)
T1 construct: expressed in transfected cells; host or cells: CHO-K1 (cell line hV1b_3H2_CHO), membrane preparation
T1 sequence (P47901 1-424): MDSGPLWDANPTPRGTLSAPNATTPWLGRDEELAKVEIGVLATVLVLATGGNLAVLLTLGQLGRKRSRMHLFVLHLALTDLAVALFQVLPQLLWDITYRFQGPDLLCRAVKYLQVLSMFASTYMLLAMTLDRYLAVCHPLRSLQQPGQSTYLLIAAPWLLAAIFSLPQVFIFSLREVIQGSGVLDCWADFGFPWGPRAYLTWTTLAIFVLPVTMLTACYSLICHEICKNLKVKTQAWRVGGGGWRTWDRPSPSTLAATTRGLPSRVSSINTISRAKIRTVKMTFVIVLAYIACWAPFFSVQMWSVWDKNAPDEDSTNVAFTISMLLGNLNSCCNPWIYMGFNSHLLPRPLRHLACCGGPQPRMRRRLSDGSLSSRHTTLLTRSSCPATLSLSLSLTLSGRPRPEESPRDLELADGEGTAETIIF
Assay: Vasopressin V1b receptor binding test
Settings: membranes of CHO-K1 cells, displacement of 1.5 nM 3H-AVP
Description: • Vasopressin V1b Receptor Binding Test: • Substances:
The test substances were dissolved at a concentration of 10^−2 M in DMSO and diluted further in DMSO to 5×10^−4 M to 5×10^−9 M. These DMSO solutions were diluted 1:10 with test buffer. The concentration of substance was again diluted 1:5 in the test preparation.
The membrane pellet was homogenized and centrifuged again as described, and then taken up in 50 mM Tris-HCl, pH 7.4, homogenized and, frozen in aliquots, stored at −190° C. in liquid nitrogen.
The incubation buffer was: 50 mM Tris, 10 mM MgCl2, 0.1% BSA, pH 7.4. […] The nonspecific binding was determined with 1 μM AVP (Bachem #H1780). All determinations were performed in triplicate. After incubation (60 minutes at room temperature), the free radioligand was filtered off by vacuum filtration (Skatron cell harvester 7000) on Whatman GF/B glass-fibre filter mats and the filters were transferred to scintillation vessels. Liquid scintillation measurement was performed in a Tricarb instrument, Model 2000 or 2200CA (Packard). Conversion of the measured cpm to dpm was performed with the aid of a standard quench series.
The binding parameters were calculated by nonlinear regression in SAS.
For the compounds according to the invention, the affinities for the human vasopressin receptor V1b were measured according to the above test and the affinity constant (Ki) was determined.

Row | Ki [nM] | Structure (SMILES)
1 | < 50 | CCOc1ccc(OC)cc1C1(N2CCN(c3ccnc(CC)c3)CC2)C(=O)N(S(=O)(=O)c2ccc(OC)cc2OC)c2ccc(C#N)cc21 (racemic) [Example 94, (±)-5-Cyano-1-(2,4-dimethoxy-benzenesulphonyl)-3-(2-ethoxy-5-methoxyphenyl)-3-[4-(2-ethyl-pyridin-4-yl)-piperazin-1-yl]-2,3-dihydro-1H-indol-2-one]
2 | 50 to 500 | CCOc1ccccc1C1(N2CCN(c3ccncc3)CC2)C(=O)N(S(=O)(=O)c2ccc(C(C)(C)C)cc2)c2ccc(C#N)cc21 (racemic) [Example 80, (±)-5-Cyano-1-(4-tert-butyl-benzenesulphonyl)-3-(2-ethoxyphenyl)-3-(4-pyridin-4-yl-piperazin-1-yl)-2,3-dihydro-1H-indol-2-one]
3 | 50 to 500 | CCOc1ccccc1C1(N2CCN(c3ccncc3)CC2)C(=O)N(S(=O)(=O)c2ccc(C(C)C)cc2)c2ccc(C#N)cc21 (racemic) [Example 81, (±)-5-Cyano-3-(2-ethoxyphenyl)-1-(4-isopropyl-benzenesulphonyl)-3-(4-pyridin-4-yl-piperazin-1-yl)-2,3-dihydro-1H-indol-2-one]
4 | < 50 | COc1ccc(S(=O)(=O)N2C(=O)C(c3cc(OC)ccc3OC)(N3CCN(c4ccncc4)CC3)c3cc(C#N)ccc32)c(OC)c1 (centres unmarked) [Example 59, 5-Cyano-1-(2,4-dimethoxy-benzenesulphonyl)-3-(2,5-dimethoxyphenyl)-3-(4-pyridin-4-yl-piperazin-1-yl)-2,3-dihydro-1H-indol-2-one]
5 | 50 to 500 | COc1ccc(S(=O)(=O)N2C(=O)C(c3ccccc3OC)(N3C[C@H]4C[C@@H]3CN4c3ccncc3)c3cc(Cl)ccc32)c(OC)c1 (stereo partly drawn) [Example 27, 5-Chloro-1-(2,4-dimethoxy-benzenesulphonyl)-3-(2-methoxyphenyl)-3-((1R,4R)-5-pyridin-4-yl-2,5-diaza-bicyclo[2.2.1]hept-2-yl)-1,3-dihydro-indol-2-one]
6 | 50 to 500 | CCOc1ccc(S(=O)(=O)N2C(=O)C(c3ccccc3OCC)(N3CCN(c4ccncc4)CC3)c3cc(C#N)ccc32)c(OC)c1 (racemic) [Example 77, (±)-5-Cyano-1-(4-ethoxy-2-methoxy-benzenesulphonyl)-3-(2-ethoxyphenyl)-3-(4-pyridin-4-yl-piperazin-1-yl)-2,3-dihydro-1H-indol-2-one hydrochloride]
7 | < 50 | COc1ccc(C2(N3CCN(c4ccncc4)CC3)C(=O)N(S(=O)(=O)c3ccc(OC)cc3OC)c3ccc(Cl)cc32)c(OC)c1 (centres unmarked) [Example 30, 5-Chloro-1-(2,4-dimethoxy-benzenesulphonyl)-3-(2,4-dimethoxyphenyl)-3-(4-pyridin-4-yl-piperazin-1-yl)-1,3-dihydro-indol-2-one, HCl salt]
8 | 50 to 500 | CCOc1ccccc1C1(N2CCN(c3ccncc3)CC2)C(=O)N(S(=O)(=O)c2cccc(N)c2)c2ccc(C#N)cc21 (centres unmarked) [Example 48, 5-Cyano-1-(3-amino-benzenesulphonyl)-3-(2-ethoxyphenyl)-3-(4-pyridin-4-yl-piperazin-1-yl)-2,3-dihydro-1H-indol-2-one]
9 | 50 to 500 | COc1ccc(S(=O)(=O)N2C(=O)C(c3cc(OC)ccc3OC(C)C)(N3CCN(c4ccncc4)CC3)c3cc(C#N)ccc32)c(OC)c1 (centres unmarked) [Example 53, 5-Cyano-1-(2,4-dimethoxy-benzenesulphonyl)-3-(2-isopropoxy-5-methoxyphenyl)-3-(4-pyridin-4-yl-piperazin-1-yl)-2,3-dihydro-1H-indol-2-one]
10 | < 50 | COc1ccccc1C1(N2CCN(c3ccncc3)CC2)C(=O)N(S(=O)(=O)c2ccc(C)cc2OC)c2ccc(Cl)cc21 (centres unmarked) [Example 6, 5-Chloro-1-(2-methoxy-4-methyl-benzenesulphonyl)-3-(2-methoxyphenyl)-3-(4-pyridin-4-yl-piperazin-1-yl)-1,3-dihydro-indol-2-one]
11 | < 50 | COc1ccccc1C1(N2CCN(c3ccncc3)CC2)C(=O)N(S(=O)(=O)c2ccccc2OC)c2ccc(Cl)cc21 (centres unmarked) [Example 5, 5-Chloro-1-(2-methoxy-benzenesulphonyl)-3-(2-methoxyphenyl)-3-(4-pyridin-4-yl-piperazin-1-yl)-1,3-dihydro-indol-2-one]
12 | 50 to 500 | CCOc1ccccc1C1(N2CCN(c3cccnc3)CC2)C(=O)N(S(=O)(=O)c2ccc(OC)cc2OC)c2ccc(C#N)cc21 (centres unmarked) [Example 2, 5-Cyano-1-(2,4-dimethoxy-benzenesulphonyl)-3-(2-ethoxyphenyl)-3-(4-pyridin-3-yl-piperazin-1-yl)-2,3-dihydro-1H-indol-2-one]
13 | < 50 | CCOc1ccc(OC)cc1C1(NCCNc2ccncc2)C(=O)N(S(=O)(=O)c2ccc(OC)cc2OC)c2ccc(C#N)cc21 (centres unmarked) [Example 122, 5-Cyano-1-(2,4-dimethoxybenzenesulphonyl)-3-(2-ethoxy-5-methoxyphenyl)-3-[2-(pyridin-4-ylamino)-ethylamino]-2,3-dihydro-1H-indol-2-one]
14 | 50 to 500 | COc1ccc(S(=O)(=O)N2C(=O)C(c3cc(F)ccc3OC)(N3CCN(c4ccncc4)CC3)c3cc(C#N)ccc32)c(OC)c1 (racemic) [Example 65, (±)-5-Cyano-1-(2,4-dimethoxy-benzenesulphonyl)-3-(5-fluoro-2-methoxyphenyl)-3-(4-pyridin-4-yl-piperazin-1-yl)-2,3-dihydro-1H-indol-2-one]
15 | 50 to 500 | CCOc1ccc(OC)cc1C1(N2CCN(c3ccncc3)CC2)C(=O)N(S(=O)(=O)c2ccc(C#N)cc2)c2ccc(C#N)cc21 (centres unmarked) [Example 61, 5-Cyano-1-(4-cyano-benzenesulphonyl)-3-(2-ethoxy-5-methoxyphenyl)-3-(4-pyridin-4-yl-piperazin-1-yl)-2,3-dihydro-1H-indol-2-one]
16 | < 50 | CCOc1ccccc1C1(N2CCN(c3ccncc3)CC2)C(=O)N(S(=O)(=O)c2ccc(OC)cc2OC)c2ccc(C#N)cc21 (centres unmarked) [Example 10, 5-Cyano-1-(2,4-dimethoxy-benzenesulphonyl)-3-(2-ethoxyphenyl)-3-(4-pyridin-4-yl-piperazin-1-yl)-2,3-dihydro-1H-indol-2-one]
17 | < 50 | CCOc1cc(F)ccc1C1(N2CCN(c3ccncc3)CC2)C(=O)N(S(=O)(=O)c2ccc(OC)cc2OC)c2ccc(C#N)cc21 (centres unmarked) [Example 57, 5-Cyano-1-(2,4-dimethoxy-benzenesulphonyl)-3-(2-ethoxy-4-fluorophenyl)-3-(4-pyridin-4-yl-piperazin-1-yl)-2,3-dihydro-1H-indol-2-one]
18 | < 50 | CCOc1ccc(OC)cc1C1(N2CCN(c3ccnc(C(C)C)c3)CC2)C(=O)N(S(=O)(=O)c2ccc(OC)cc2OC)c2ccc(C#N)cc21 (racemic) [Example 92, (±)-5-Cyano-1-(2,4-dimethoxy-benzenesulphonyl)-3-(2-ethoxy-5-methoxyphenyl)-3-[4-(2-isopropyl-pyridin-4-yl)-piperazin-1-yl]-2,3-dihydro-1H-indol-2-one]
19 | < 50 | CCOc1ccc(OC)cc1C1(N2CCN(c3ccnc(C)c3)CC2)C(=O)N(S(=O)(=O)c2ccc(OC)cc2OC)c2ccc(C#N)cc21 (centres unmarked) [Example 50, 5-Cyano-1-(2,4-dimethoxy-benzenesulphonyl)-3-(2-ethoxy-5-methoxyphenyl)-3-[4-(2-methyl-pyridin-4-yl)-piperazin-1-yl]-2,3-dihydro-1H-indol-2-one]
20 | < 50 | COc1ccc(S(=O)(=O)N2C(=O)C(c3ccccc3OC)(N3C[C@H]4CN(c5ccncc5)C[C@H]43)c3cc(Cl)ccc32)c(OC)c1 (stereo partly drawn) [Example 21, 5-Chloro-1-(2,4-dimethoxy-benzenesulphonyl)-3-(2-methoxyphenyl)-3-((1R,5S)-3-pyridin-4-yl-3,6-diaza-bicyclo[3.2.0]hept-6-yl)-1,3-dihydro-indol-2-one]
21 | 50 to 500 | CCOc1ccccc1C1(N2CCN(c3ccncc3)CC2)C(=O)N(S(=O)(=O)c2ccc(C)cc2F)c2ccc(C#N)cc21 (centres unmarked) [Example 115, 5-Cyano-3-(2-ethoxyphenyl)-1-(2-fluoro-4-methylbenzenesulphonyl)-3-(4-pyridin-4-yl-piperazin-1-yl)-2,3-dihydro-1H-indol-2-one]

Row | Structure (SMILES) | Ki [nM]
22 | CCOc1c(OC)cccc1C1(N2CCN(c3ccnc(C(C)C)c3)CC2)C(=O)N(S(=O)(=O)c2ccc(OC)cc2OC)c2ccc(C#N)cc21 (centres unmarked) [Example 110, 5-Cyano-1-(2,4-dimethoxybenzenesulphonyl)-3-(2-ethoxy-3-methoxyphenyl)-3-[4-(2-isopropylpyridin-4-yl)-piperazin-1-yl]-2,3-dihydro-1H-indol-2-one×trifluoroacetic acid] | < 50
23 | CCOc1ccccc1C1(N2CCN(c3ccncc3)CC2)C(=O)N(S(=O)(=O)c2ccc(OC(C)C)cc2)c2ccc(C#N)cc21 (centres unmarked) [Example 113, 5-Cyano-3-(2-ethoxyphenyl)-1-(4-isopropoxybenzenesulphonyl)-3-(4-pyridin-4-yl-piperazin-1-yl)-2,3-dihydro-1H-indol-2-one×trifluoroacetic acid] | 50 to 500
